Results reported in US10822317B2, “Methods and compositions for wound healing” (QBiotics Limited, priority 2013, dated 2020).

How the values were obtained:
[1] = test system: human peripheral blood monocytes; assay: Differentiation of monocytes into macrophages; format: cell-based; conditions: 10-fold dilutions; 4 days; adherence and morphology
Experimental: To determine potential effects of Compound 1 and fifteen other epoxy-tigliane compounds in the array on monocyte differentiation, human peripheral blood mononuclear cells (PBMCs) were isolated by Ficoll-Paque sedimentation of heparinised blood from a human donor, and plated at 100,000 cells/well in RPMI-1640 10% FCS. Duplicate wells were treated with 10-fold dilutions of the compounds and incubated at 37° C. for 4 days. The wells were scored visually for cell attachment and morphology, then washed twice with PBS, stained with sulfurhodamine and the incorporate stain quantitated in an ELISA reader. The plates were then washed with water and stained with 1% crystal violet in methanol for photography and scoring of adherent cell morphology.

[2] = test system: human neonatal fibroblasts; assay: Scratch closure, human neonatal fibroblasts, Method 3 (IncuCyte); format: cell-based; conditions: 200 ng/mL
Experimental: The ability of early. passage neonatal foreskin fibroblasts (NFF) cultured in RPMI 1640-10% foetal calf serum to migrate across a scratch wound made in a confluent monolayer following treatment with purified compounds or plant extracts was determined using one or more of the following three methods.
Cells were seeded and treated in 96-well plates as in Method 2 (5 replicate wells per dilution), except that the scratches were made in one action with a tool having 96, 1 mm thick teflon coated pins (Essen Bioscience Woundmaker). The plate was then placed in a 37° C., 5% CO2 humidified atmosphere in an IncuCyte FLR instrument programmed to photograph each well under phase contrast at 3 hr intervals for 42 hours. The software determined the initial scratch boundaries and their rate of closure. Accelerated wound closure was considered to be significant if the initial rate of closure was >10% of the untreated controls.

Molecule	Differentiation endpoint (endpoint concentration in dilution series for induction of macrophage phenotype) [1]	% closure compared to control [2]
12,13-di-heptanoyl-6,7-epoxy-4,5,9,12,13,20-hexahydroxy-1-tigliaen-3-one [Compound 49]	1 ng/mL	–
CCCCCC=CC=CC=CC(=O)OC1C(C)C2(O)C(C3OC3(CO)C(O)C3(O)C(=O)C(C)=CC32)C2C(C)(C)C12OC(=O)C(C)CC (stereo not drawn) [Compound 3, 12-[(2E,4E,6E)-dodeca-2,4,6-trienoyl]-13-(2-methylbutanoyl)-6,7-epoxy-4,5,9,12,13,20-hexahydroxy-1-tigliaen-3-one]	10 ng/mL	270%
12-tigloyl-13-butanoyl-6,7-epoxy-4,5,9,12,13,20-hexahydroxy-1-tigliaen-3-one [Compound 21]	10 ng/mL	200%
12-myristoyl-13-acetyl-6,7-epoxy-4,5,9,12,13,20-hexahydroxy-1-tigliaen-3-one [Compound 50]	1 ng/mL	–
12-benzoyl-13-butanoyl-6,7-epoxy-4,5,9,12,13,20-hexahydroxy-1-tigliaen-3-one [Compound 28]	–	140%
CCCCCC=CC=CC(=O)OC1C(C)C2(O)C(C3OC3(CO)C(O)C3(O)C(=O)C(C)=CC32)C2C(C)(C)C12OC(=O)C(C)CC (stereo not drawn) [Compound 18, 12-[(2Z,4E)-deca-2,4-dienoyl]-13-(2-methylbutanoyl)-6,7-epoxy-4,5,9,12,13,20-hexahydroxy-1-tigliaen-3-one]	–	220%
12-benzoyl-13-(2-methylbutanoyl)-6,7-epoxy-4,5,9,12,13,20-hexahydroxy-1-tigliaen-3-one [Compound 23]	1 ng/mL	130%
12-myristoyl-13-(2-methylbutanoyl)-6,7-epoxy-4,5,9,12,13,20-hexahydroxy-1-tigliaen-3-one [Compound 51]	1 ng/mL	–
CCCCCC=CC=CC(=O)OC1C(C)C2(O)C(C3OC3(CO)C(O)C3(O)C(=O)C(C)=CC32)C2C(C)(C)C12OC(=O)C(C)CC (stereo not drawn) [Compound 24, 12-[(2E,4E)-deca-2,4-dienoyl]-13-(2-methylbutanoyl)-6,7-epoxy-4,5,9,12,13,20-hexahydroxy-1-tigliaen-3-one]	1 ng/mL	–
CCCCCC(=O)OC12C(O)C(C)C3(O)C(C4OC4(CO)C(O)C4(O)C(=O)C(C)=CC43)C1C2(C)C (stereo not drawn) [Compound 53, 13-hexanoyl-6,7-epoxy-4,5,9,12,13,20-hexahydroxy-1-tigliaen-3-one]	100 ng/mL	–
CCCCCC(O)C(O)/C=C/C=C/C(=O)OC1C(C)C2(O)C(C3OC3(CO)C(O)C3(O)C(=O)C(C)=CC32)C2C(C)(C)C12OC(=O)C(C)CC (stereo not drawn) [Compound 11, 12-[(2E,4E)-6,7-dihydroxydodeca-2,4-dienoyl]-13-(2-methylbutanoyl)-6,7-epoxy-4,5,9,12,13,20-hexahydroxy-1-tigliaen-3-one]	–	270%
12-(3-butenoyl)-13-nonanoyl-6,7-epoxy-4,5,9,12,13,20-hexahydroxy-1-tigliaen-3-one [Compound 22]	100 ng/mL	400%
12,13-di-nonoyl-6,7-epoxy-4,5,9,12,13,20-hexahydroxy-1-tigliaen-3-one [Compound 41]	0.1 ng/mL	–
CCC(C)C(=O)OC1C(C)C2(O)C(C3OC3(CO)C(O)C3(O)C(=O)C(C)=CC32)C2C(C)(C)C12OC(C)=O (stereo not drawn) [Compound 52, 12-(2-methylbutanoyl)-13-acetyl-6,7-epoxy-4,5,9,12,13,20-hexahydroxy-1-tigliaen-3-one]	10 ng/mL	–
